According to ChEMBL document CHEMBL1131189, “Conformationally restricted analogues of 1N,12N-bisethylspermine: synthesis and growth inhibitory effects on human tumor cell lines” (1998):
Each block holds one compound with its values, some of them ahead of it.

How the values were obtained:
DU-145 [1] = assay: Growth inhibitory activity was measured for human DU145 tumor cell line.; assay type: functional; details: read-out: ID50 (the source's name)
A549 = assay: Growth inhibitory activity was measured for human A549 tumor cell line.; assay type: functional; details: read-out: ID50 (the source's name)
DU-145 [2] = assay: The concentration levels of putrescine (PU) evaluated in DU145 cells treated with the compound concentration of 5 uM on fifth day of treatment.; assay type: functional, cell-based; details: Homo sapiens
DU-145 [3] = assay: The concentration levels of putrescine (PU) evaluated in DU145 cells treated with the compound concentration of 5 uM on third day of treatment.; assay type: functional, cell-based; details: Homo sapiens
DU-145 [4] = assay: The concentration levels of spermidine (SD) evaluated in DU145 cells treated with the compound concentration of 0.02 uM on fifth day of treatment.; assay type: functional, cell-based; details: Homo sapiens
DU-145 [5] = assay: The concentration levels of spermidine (SD) evaluated in DU145 cells treated with the compound concentration of 5 uM on fifth day of treatment.; assay type: functional, cell-based; details: Homo sapiens
DU-145 [6] = assay: The concentration levels of spermidine (SD), evaluated in DU145 cells treated with the compound concentration of 0.02 uM on third day of treatment.; assay type: functional, cell-based; details: Homo sapiens
DU-145 [7] = assay: The concentration levels of spermidine (SD), evaluated in DU145 cells treated with the compound concentration of 5 uM on third day of treatment.; assay type: functional, cell-based; details: Homo sapiens
DU-145 [8] = assay: The concentration levels of analogue evaluated in DU145 cells treated with the compound concentration of 0.02 uM on fifth day of treatment.; assay type: functional, cell-based; details: Homo sapiens
DU-145 [9] = assay: The concentration levels of analogue evaluated in DU145 cells treated with the compound concentration of 0.02 uM on third day of treatment.; assay type: functional, cell-based; details: Homo sapiens
DU-145 [10] = assay: The concentration levels of analogue evaluated in DU145 cells treated with the compound concentration of 5 uM on fifth day of treatment.; assay type: functional, cell-based; details: Homo sapiens
DU-145 [11] = assay: The concentration levels of spermine (SP) evaluated in DU145 cells treated with the compound concentration of 0.02 uM on fifth day of treatment.; assay type: functional, cell-based; details: Homo sapiens
DU-145 [12] = assay: The concentration levels of spermine (SP) evaluated in DU145 cells treated with the compound concentration of 5 uM on fifth day of treatment.; assay type: functional, cell-based; details: Homo sapiens
DU-145 [13] = assay: The concentration levels of spermine (SP), evaluated in DU145 cells treated with the compound concentration of 5 uM on third day of treatment.; assay type: functional, cell-based; details: Homo sapiens
DU-145 [14] = assay: The concentration levels of analogue evaluated in DU145 cells treated with the compound concentration of 5 uM on third day of treatment.; assay type: functional, cell-based; details: Homo sapiens
DU-145 [15] = assay: The concentration levels of putrescine (PU) evaluated in DU145 cells treated with the compound concentration of 0.02 uM on fifth day of treatment.; assay type: functional, cell-based; details: Homo sapiens
DU-145 [16] = assay: The concentration levels of putrescine (PU) evaluated in DU145 cells treated with the compound concentration of 0.02 uM on third day of treatment.; assay type: functional, cell-based; details: Homo sapiens
DU-145 [17] = assay: The concentration levels of spermine (SP), evaluated in DU145 cells treated with the compound concentration of 0.02 uM on third day of treatment.; assay type: functional, cell-based; details: Homo sapiens
HT-29 = assay: Growth inhibitory activity was measured for human HT-29 tumor cell line.; assay type: functional; details: read-out: ID50 (the source's name)
PC-3 = assay: Growth inhibitory activity was measured for human PC-3 tumor cell line.; assay type: functional; details: read-out: ID50 (the source's name)
U-251 = assay: Growth inhibitory activity was measured for human U251MG NCI tumor cell line.; assay type: functional; details: read-out: ID50 (the source's name)
MCF7 = assay: Growth inhibitory activity was measured for human MCF-7 tumor cell line.; assay type: functional; details: read-out: ID50 (the source's name)

- IC50 (DU-145 [1]; Homo sapiens, DU-145): 140 nM
SMILES: CCNCCCNC/C=C/CNCCCNCC

- IC50 (A549; Homo sapiens, A549): 250 nM
- IC50 (DU-145 [1]; Homo sapiens, DU-145): 50 nM
SMILES: CCNCCCNC/C=C\CNCCCNCC
- Concentration (nM (10e6*cells)-1) (DU-145 [2]): 0.03
- Concentration (nM (10e6*cells)-1) (DU-145 [3]): 0.06
- Concentration (nM (10e6*cells)-1) (DU-145 [4]): 1.73
- Concentration (nM (10e6*cells)-1) (DU-145 [5]): 0.02
- Concentration (nM (10e6*cells)-1) (DU-145 [6]): 1.79
- Concentration (nM (10e6*cells)-1) (DU-145 [7]): 0.02
- Concentration (nM (10e6*cells)-1) (DU-145 [8]): 0.03
- Concentration (nM (10e6*cells)-1) (DU-145 [9]): 0.04
- Concentration (nM (10e6*cells)-1) (DU-145 [10]): 2.54
- Concentration (nM (10e6*cells)-1) (DU-145 [11]): 1.71
- Concentration (nM (10e6*cells)-1) (DU-145 [12]): 0.07
- Concentration (nM (10e6*cells)-1) (DU-145 [13]): 0.09
- Concentration (nM (10e6*cells)-1) (DU-145 [14]): 2.76
- Concentration (nM (10e6*cells)-1) (DU-145 [15]): 0.04
- Concentration (nM (10e6*cells)-1) (DU-145 [16]): 0.11
- Concentration (nM (10e6*cells)-1) (DU-145 [17]): 2.99

- IC50 (A549): 250 nM
- IC50 (DU-145 [1]): 60 nM
- IC50 (HT-29): 1400 nM
- IC50 (PC-3): 12400 nM
SMILES: CCNCCCNCC1CC1CNCCCNCC (stereo in doubt; 5)

- IC50 (A549): 120 nM
- IC50 (DU-145 [1]): 20 nM
SMILES: CCNCCCNCC1CC1CNCCCNCC (stereo in doubt; 9)
- IC50 (U-251): 100 nM

- IC50 (DU-145 [1]): 10 nM
- IC50 (HT-29; Homo sapiens, HT-29): 1600 nM
- IC50 (MCF7): > 31200 nM
SMILES: CCNCCCNCC1CCC1CNCCCNCC (stereo in doubt; 15) [listing 1 of 2 here]
- IC50 (U-251): 120 nM

SMILES: CCNCCCNCC1CCC1CNCCCNCC (stereo in doubt; 15) [listing 2 of 2 here]
- Concentration (nM (10e6*cells)-1) (DU-145 [2]): 0.031
- Concentration (nM (10e6*cells)-1) (DU-145 [3]): 0.036
- Concentration (nM (10e6*cells)-1) (DU-145 [4]): 1.6
- Concentration (nM (10e6*cells)-1) (DU-145 [5]): 0.06
- Concentration (nM (10e6*cells)-1) (DU-145 [6]): 2.13
- Concentration (nM (10e6*cells)-1) (DU-145 [7]): 0.15
- Concentration (nM (10e6*cells)-1) (DU-145 [8]): 0.05
- Concentration (nM (10e6*cells)-1) (DU-145 [9]): 0.07
- Concentration (nM (10e6*cells)-1) (DU-145 [10]): 1.84
- Concentration (nM (10e6*cells)-1) (DU-145 [11]): 2.1
- Concentration (nM (10e6*cells)-1) (DU-145 [12]): 0.2
- Concentration (nM (10e6*cells)-1) (DU-145 [13]): 0.49
- Concentration (nM (10e6*cells)-1) (DU-145 [14]): 1.75
- Concentration (nM (10e6*cells)-1) (DU-145 [15]): 0.081
- Concentration (nM (10e6*cells)-1) (DU-145 [16]): 0.162
- Concentration (nM (10e6*cells)-1) (DU-145 [17]): 3.54

- IC50 (DU-145 [1]): 50 nM
- IC50 (PC-3): > 31200 nM
SMILES: CCNCCCNCC1CCC1CNCCCNCC (stereo in doubt; 19)

- IC50 (A549; Homo sapiens, A549): 200 nM
- IC50 (DU-145 [1]; Homo sapiens, DU-145): 40 nM
- IC50 (HT-29; Homo sapiens, HT-29): 430 nM
- IC50 (MCF7): 550 nM
- IC50 (PC-3; Homo sapiens, PC-3): 240 nM
SMILES: CCNCCCNCCCCNCCCNCC [BIS(ETHYL)SPERMINE]
- IC50 (U-251): 200 nM
